Measured values as given in patent publication US20210045385A1, “PYRIDAZINONE-SUBSTITUTED KETOXIMES AS HERBICIDES” (FMC Corporation, priority 2018, published 2021).

Experiments:
Format in all cases: in vivo
[1] = system: Italian ryegrass (Lolium multiflorum); experiment: Test A preemergence, visual plant response rating
In short: (§1)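 Compared with untreated controls, treated plants received a visual injury score on a 0–100 scale around 10 days after application. The compound, in a non-phytotoxic solvent with surfactant, was given as a preemergence soil spray or postemergence at the one- to two-leaf stage.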

[2] = system: pigweed (Amaranthus retroflexus); experiment: Test A preemergence, visual plant response rating
In short: as §1

[3] = system: ragweed (common ragweed, Ambrosia elatior); experiment: Test A preemergence, visual plant response rating; conditions: 500 g ai/ha Preemergence; approx. 10 days
In short: as §1

[4] = system: foxtail, giant (giant foxtail, Setaria faberii); experiment: Test A preemergence, visual plant response rating
In short: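 Ratings 0–100 (100 = complete control), visual, vs untreated controls at ~10 days. Application pre- or postemergence; solvent mixture with surfactant; loam/sand medium.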

[5] = system: barnyardgrass (Echinochloa crus-galli); experiment: Test A preemergence, visual plant response rating
In short: as §1

kochia (Kochia scoparia) [6] = experiment: Test A preemergence, visual plant response rating
In short: as §1

[7] = system: sedge, umbrella (small-flower umbrella sedge, Cyperus difformis); experiment: Test B flooded paddy test, visual plant response rating; conditions: 250 g ai/ha, Flood, applied to paddy water, 2-leaf stage, evaluated after 13 to 15 days
In short: (§2)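 Visual scores compare treated plants with controls after 13 to 15 days of greenhouse growth. Treatment was made into paddy water standing 3 cm above the soil, with plants at the 2-leaf stage and flooding maintained throughout.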

[8] = system: ducksalad (Heteranhera limosa); experiment: as above; conditions: 250 g ai/ha, Flood, applied to paddy water, 2-leaf stage, evaluated after 13 to 15 days
In short: as §2

[9] = system: barnyardgrass (Echinochloa crus-galli); experiment: as above; conditions: 250 g ai/ha, Flood, applied to paddy water, 2-leaf stage, evaluated after 13 to 15 days
In short: as §2

rice (Oryza sativa) = experiment: as above; conditions: 250 g ai/ha, Flood, applied to paddy water, 2-leaf stage, evaluated after 13 to 15 days
In short: as §2

[10] = system: Italian ryegrass (Lolium multiflorum); experiment: Test A postemergence, visual plant response rating
In short: as §1

[11] = system: pigweed (Amaranthus retroflexus); experiment: Test A postemergence, visual plant response rating
In short: as §1

[12] = system: ragweed (common ragweed, Ambrosia elatior); experiment: Test A postemergence, visual plant response rating
In short: as §1

[13] = system: foxtail, giant (giant foxtail, Setaria faberii); experiment: Test A postemergence, visual plant response rating
In short: as §1

corn (Zea mays) = experiment: Test A postemergence, visual plant response rating
In short: as §1

[14] = system: barnyardgrass (Echinochloa crus-galli); experiment: Test A postemergence, visual plant response rating
In short: as §1

[15] = system: wheat (Triticum aestivum); experiment: Test A postemergence, visual plant response rating
In short: as §1

[16] = system: galium (catchweed bedstraw, Galium aparine); experiment: Test A postemergence, visual plant response rating
In short: as §1

kochia (Kochia scoparia) [17] = experiment: Test A postemergence, visual plant response rating
In short: as §1

[18] = system: blackgrass (Alopecurus myosuroides); experiment: Test A postemergence, visual plant response rating
In short: as §1

[19] = 125 g ai/ha, preemergence, 0 to 100 scale, 0 no effect, 100 complete control
[20] = 500 g ai/ha Preemergence, approx. 10 days
[21] = 500 g ai/ha, postemergence, 0 is no effect, 100 is complete control
[22] = Postemergence, 125 g ai/ha, 0 to 100 scale (0 no effect, 100 complete control)

CON=C(c1sccc1C)c1c(O)c(C)nn(C)c1=O [Compound 134]
30: Ryegrass, Italian plant response rating (0 to 100 scale) [1, 20]
50: Kochia plant response rating (0 to 100 scale) (kochia (Kochia scoparia) [6]; [20])
0: Foxtail, Giant plant response rating [4, 19] | Barnyardgrass plant response rating [5, 19] | Plant response rating, Sedge, Umbrella (0 to 100 scale, 0 is no effect, 100 is complete control) [7] | Plant response rating, Ducksalad (0 to 100 scale, 0 is no effect, 100 is complete control) [8] | Plant response rating, Barnyardgrass (0 to 100 scale, 0 is no effect, 100 is complete control) [9] | Plant response rating, Rice (0 to 100 scale, 0 is no effect, 100 is complete control) (rice (Oryza sativa)) | Corn plant response rating (0 to 100 scale) (corn (Zea mays); [21]) | Corn plant response rating (corn (Zea mays); [22]) | Wheat plant response rating (0 to 100 scale) [15, 21] | Wheat plant response rating [15, 22] | Blackgrass plant response rating [18, 22]
10: Ryegrass, Italian plant response rating [1, 19] | Foxtail, Giant plant response rating (0 to 100 scale) [4, 20] | Barnyardgrass plant response rating (0 to 100 scale) [5, 20] | Kochia plant response rating (kochia (Kochia scoparia) [6]; [19]) | Foxtail, Giant plant response rating [13, 22] | Barnyardgrass plant response rating [14, 22] | Blackgrass plant response rating (0 to 100 scale) [18, 21]
20: Pigweed plant response rating [2, 19] | Ryegrass, Italian plant response rating [10, 22] | Foxtail, Giant plant response rating (0 to 100 scale) [13, 21] | Barnyardgrass plant response rating (0 to 100 scale) [14, 21] | Kochia plant response rating (kochia (Kochia scoparia) [17]; [22])
40: Pigweed plant response rating [11, 22]
60: Pigweed plant response rating (0 to 100 scale) [2, 20] | Ragweed plant response rating [12, 22] | Galium plant response rating (0 to 100 scale) [16, 21] | Galium plant response rating [16, 22]
70: Ragweed plant response rating (0 to 100 scale) [3] | Ragweed plant response rating (0 to 100 scale) [12, 21] | Kochia plant response rating (0 to 100 scale) (kochia (Kochia scoparia) [17]; [21])
80: Ryegrass, Italian plant response rating (0 to 100 scale) [10, 21] | Pigweed plant response rating (0 to 100 scale) [11, 21]
